Measured values taken from US6903089B1, “Lactam-substituted pyrazolopyridine derivatives” (Bayer Aktiengesellschaft, priority 2000, dated 2005).

Tested on: rabbit aorta rings
Assay: Vasorelaxant effect in vitro (phenylephrine-contracted rabbit aorta rings)
Conditions: Oryctolagus cuniculus, contraction generated by phenylephrine, concentration reducing height of control contraction by 50%
Experimental: Rabbits are stunned by a blow to the back of the neck and are exsanguinated. The aorta is removed, freed of adherent tissue, divided into rings 1.5 mm wide and put singly under tension in 5 ml organ baths containing carbogen-gassed Krebs-Henseleit solution at 37° C. with the following composition (mM): NaCl: 119; KCl: 4.8; CaCl2×2H2O: 1; MgSO4×7 H2O: 1.4; KH2PO4: 1.2; NaHCO3: 25; glucose: 10. The force of contraction is detected with Statham UC2 cells, amplified and digitized via A/D converters (DAS-1802 HC, Keithley Instruments Munich) and recorded in parallel on chart recorders. A contraction is generated by adding phenylephrine to the bath cumulatively in increasing concentration. After several control cycles, the substance to be investigated is investigated in each further run in increing dosage in each case, and the height of the contraction is compared with the height of the contraction reached in the last preceding run. The concentration necessary to reduce the height of the control value by 50% (IC50) is calculated from this. The standard application volume is 5 μl, and the DMSO content in the bath solution corresponds to 0.1%.

Compound	IC50 [µM]
Nc1nc(-c2nn(Cc3ccccc3F)c3ncccc23)ncc1N1CCSC1=O [Example 16]	1.23
CC1(C)CN(c2cnc(-c3nn(Cc4ccccc4F)c4ncccc34)nc2N)C(=O)C1(C)C [Example 9]	0.7
CC12CC1C(=O)N(c1cnc(-c3nn(Cc4ccccc4F)c4ncccc34)nc1N)C2=O (centres unmarked) [Example 19]	0.41
Nc1nc(-c2nn(Cc3ccccc3F)c3ncccc23)ncc1N1CCCCC1=O [Example 3]	1.99
Nc1nc(-c2nn(Cc3ccccc3F)c3ncccc23)ncc1N1CCCC1=O [Example 2]	1.1
CC1(C)OC(=O)N(c2cnc(-c3nn(Cc4ccccc4F)c4ncccc34)nc2N)C1=O [Example 14, 3-{4-Amino-2-[1-(2-fluorobenzyl)-1H-pyrazolo[3,4-b]pyridin-3-yl]-5-pyrimidinyl}-5,5-dimethyl-1,3-oxazolidine-2,4-dione]	0.42
CC1C(=O)N(c2cnc(-c3nn(Cc4ccccc4F)c4ncccc34)nc2N)C(=O)C1(C)C (centres unmarked) [Example 13]	0.69
Nc1nc(-c2nn(Cc3ccccc3F)c3ncccc23)ncc1N1CCOC1=O [Example 15]	1.2
CC(=O)Nc1nc(-c2nn(Cc3ccccc3F)c3ncccc23)ncc1N1CCOC1=O [Example 21, N-[2-[1-(2-Fluorebenzyl)-1H-pyrazolo[34-b]pyridin-3-yl]-5-(2-oxo-1,3-oxazolidin-3-yl)-4-pyrimidinyl]acetamide]	0.25
Nc1nc(-c2nn(Cc3ccccc3F)c3ncccc23)ncc1N1C(=O)c2ccccc2C1=O [Example 22, 2-{4-Amino-2-[1-(2-fluorobenzyl)-1H-pyrazolo[3,4-b]pyridin-3-yl]-5-pyrimidinyl}-1H-isoindole-1,3(2H)-dione]	0.6
Nc1nc(-c2nn(Cc3ccccc3F)c3ncccc23)ncc1N1CCCCCC1=O [Example 5]	1.05
